# Test results reported in publication PMC9176816, “A rapid and sensitive assay for quantifying the activity of both aerobic and anaerobic ribonucleotide reductases acting upon any or all substrates” (PLoS ONE, 2022).
# Key:
# [1] = target: T1, E. coli class Ia RNR (EcRNR; NrdA/NrdB) (Escherichia coli, UniProt P00452); experiment: LC-MS/MS of dCDP formation; type: biochemical; details: relative to 3 mM ATP; 1 mM CDP, dATP printed as 0.175 μM and 175 μM, NrdA 0.1 μM, NrdB 0.5 μM, Trx/TrxR/NADPH, Mg, pH 7.6, 37 °C; allosteric inhibitor
# T1 construct: both subunits N-terminally His-tagged (tags kept), codon-optimized pET30(a), E. coli T7 Express; NrdA 85774 Da, NrdB 44528 Da; alpha2 and beta2 dimers; with Ribonucleoside-diphosphate reductase 1 subunit beta
# T1 sequence (P00452 1-761): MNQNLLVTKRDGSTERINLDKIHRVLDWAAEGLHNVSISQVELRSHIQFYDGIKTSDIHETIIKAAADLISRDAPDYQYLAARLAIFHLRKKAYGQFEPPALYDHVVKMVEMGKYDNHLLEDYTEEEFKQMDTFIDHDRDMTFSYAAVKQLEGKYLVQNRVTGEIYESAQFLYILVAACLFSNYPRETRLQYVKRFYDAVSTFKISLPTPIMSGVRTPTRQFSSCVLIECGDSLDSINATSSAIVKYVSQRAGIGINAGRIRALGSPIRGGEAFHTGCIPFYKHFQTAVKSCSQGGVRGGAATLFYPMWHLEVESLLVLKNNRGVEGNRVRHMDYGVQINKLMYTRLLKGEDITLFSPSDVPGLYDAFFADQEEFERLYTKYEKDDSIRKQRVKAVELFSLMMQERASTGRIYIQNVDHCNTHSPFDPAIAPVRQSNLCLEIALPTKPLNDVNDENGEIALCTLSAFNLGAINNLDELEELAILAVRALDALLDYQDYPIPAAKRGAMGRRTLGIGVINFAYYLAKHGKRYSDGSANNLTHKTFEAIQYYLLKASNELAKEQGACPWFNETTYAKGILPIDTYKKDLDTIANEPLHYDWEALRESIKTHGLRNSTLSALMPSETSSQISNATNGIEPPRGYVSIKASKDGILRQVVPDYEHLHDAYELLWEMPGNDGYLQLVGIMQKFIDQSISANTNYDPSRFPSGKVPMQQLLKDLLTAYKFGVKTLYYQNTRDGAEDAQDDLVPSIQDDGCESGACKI
# T1 sequence (P69924 2-376 partner): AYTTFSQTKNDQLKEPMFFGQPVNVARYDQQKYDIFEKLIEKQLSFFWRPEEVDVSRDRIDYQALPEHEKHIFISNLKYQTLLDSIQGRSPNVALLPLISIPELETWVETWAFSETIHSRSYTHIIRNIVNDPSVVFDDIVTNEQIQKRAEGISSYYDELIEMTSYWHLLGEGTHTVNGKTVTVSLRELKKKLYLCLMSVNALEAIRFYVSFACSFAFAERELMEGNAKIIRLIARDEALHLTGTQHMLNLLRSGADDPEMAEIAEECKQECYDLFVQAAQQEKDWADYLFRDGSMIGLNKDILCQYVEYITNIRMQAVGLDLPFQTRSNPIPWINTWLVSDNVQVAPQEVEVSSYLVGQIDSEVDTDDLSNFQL
# [2] = target: T1, E. coli class Ia RNR (EcRNR; NrdA/NrdB); experiment: LC-MS/MS of dCDP, dUDP, dADP, dGDP formation; type: biochemical; details: four substrates (CDP 70, UDP 50, GDP 200, ADP 110 μM), 3 mM ATP, 20 μM dATP, remaining activity, specificity effector, pH 7.6, 37 °C
smiles,measurement,setting,value
Nc1ncnc2c1ncn2[C@H]1C[C@H](O)[C@@H](COP(=O)(O)OP(=O)(O)OP(=O)(O)O)O1 [dATP],% inactivation,[1],99%
Nc1nc2c(ncn2[C@H]2C[C@H](O)[C@@H](COP(=O)(O)OP(=O)(O)OP(=O)(O)O)O2)c(=O)[nH]1 [dGTP],% of initial activity at 1 mM,[2]; 250 μM TTP present,50%
Cc1cn([C@H]2C[C@H](O)[C@@H](COP(=O)(O)OP(=O)(O)OP(=O)(O)O)O2)c(=O)[nH]c1=O [TTP],% of initial activity at 1 mM,[2]; 100 μM dGTP present,27%
